Data from publication PMC10801772 (The Journal of Pharmacology and Experimental Therapeutics, 2024).
Where “and” joins values, the source holds several entries; their conditions need not be identical. Equal values may be shown once. Read-outs that look alike come from different tables or passages of the source.

Experiments:
[1] = test system: mice at terminal stages of botulism (2.2x LD50 BoNT/A, i.v.); conditions: mouse, in vivo
[2] = cited from earlier work; for Brain penetration: in vivo
[3] = test system: mice at terminal stages of botulism (2.2x LD50 BoNT/A, i.v.); conditions: mouse, in vivo; remark: listed apart in the source
healthy mice = conditions: mouse, in vivo
[4] = mouse, in vivo, sc, 2 mg/kg; cited from earlier work
[5] = test system: animal models of botulism; conditions: in vivo; cited from earlier work
patients with LEMS = conditions: human, in vivo; cited from earlier work
[6] = in vivo, po; cited from earlier work

Nc1ccnc(N)c1 [2,4-DAP, 2,4-diaminopyridine]
Relative effects on TV versus RR [1]: increased TV and RR by roughly equal proportions
Brain penetration [2]: poor brain penetration

Nc1ccnc(F)c1 [2F-4AP, 4-amino-2-fluoropyridine]
Effects on ventilatory parameters (MV, TV, RR) [1]: indistinguishable from vehicle

Nc1cncc(N)c1N [3,4,5-TAP, 3,4,5-triaminopyridine]
Relative effects on TV versus RR [1]: increased TV and RR by roughly equal proportions
Brain penetration [2]: poor brain penetration

Nc1ccncc1N [3,4-DAP, 3,4-diaminopyridine]
Effect on ventilatory parameters (TV, RR, MV, mid-expiratory flow, peak inspiratory flow, peak expiratory flow, expired volume, enhanced pause) [1]: significantly improved
Lowest dose to produce an unambiguous peak response in MV [1]: 0.25 mg/kg
Relative effects on TV versus RR [1]: more potent effects on TV
Time after treatment at which MV significantly improved [1]: 10 min
Time after treatment to maximum effect on MV [1]: 25 to 30 min
Time after which ventilatory parameters began to decline [1]: approximately 30 minutes
Time up to which all ventilatory parameters remained significantly improved compared with vehicle [1]: 90 min
Doses that increased both ventilatory parameters and respiration ([1]; sc): ≥ 0.25 mg/kg
Blood gas levels [3]: did not improve
Lactate [3]: did not show any significant improvement
Time to improvement in blood gas levels [3]: 45 min and < 30 min
Time to reversal of respiratory acidosis (pCO2, HCO3-, pH, lactate) [3]: ≤ 30 minutes
pCO2, pH and HCO3- [3]: improved
Effect on pO2 levels ([3]; sc): Neither intoxication nor 3,4-DAP treatment had an effect on pO2 levels
Effect on MV (healthy mice): no changes in MV
Effect on RR (healthy mice): significantly increased RR
Effect on TV (healthy mice): concomitant reductions in TV
Maximum blood levels [4]: 840 ng/mL
Exposure required for reversal of botulism symptoms [5]: 125 ng/mL
Exposure needed for typical patients with LEMS (patients with LEMS): 32 ng/mL

[2H]c1nc([2H])c(N)c(N)c1[2H] [3,4-DAP-d3, 3,4-diaminopyridine-d3]
Relative effects on TV versus RR [1]: more potent effects on TV
CNS permeability / brain penetration ([2]; not told): low central nervous system (CNS) permeability

Nc1c(F)cncc1F [3,5DF-4AP, 4-amino-3,5-difluoropyridine]
Effects on ventilatory parameters (MV, TV, RR) [1]: indistinguishable from vehicle

Nc1ccncc1F [3F-4AP, 4-amino-3-fluoropyridine]
Relative effects on TV versus RR [1]: more potent effects on RR
Symptomatic benefits compared with the other effective aminopyridines [1]: modest and short in duration
CNS permeability ([2]; not told): CNS-permeable

Nc1ccncc1 [4-AP, 4-aminopyridine]
Relative effects on TV versus RR [1]: increased TV and RR by roughly equal proportions
Effect on MV (healthy mice): no changes in MV
Effect on RR (healthy mice): significantly increased RR
Effect on TV (healthy mice): concomitant reductions in TV
Blood brain barrier permeability relative to 3,4-DAP ([2]; not told): approximately sixfold greater

[2H]c1nc([2H])c([2H])c(N)c1[2H] [4-AP-d4, 4-aminopyridine-d4]
Relative effects on TV versus RR [1]: increased TV and RR by roughly equal proportions

Nc1ccncc1N [amifampridine]
Maximum blood levels [6]: 38.6 ± 9.2 ng/mL
